# Several values for one entry are separate records, joined by “and”; a condition that tells them apart may be missing. Equal entries are not always repeated. Entries after “also recorded” stand apart in the source; their conditions may differ. Where two headings read alike, the source gives them in different places.
# Experiments:
# [1] = test system: MAP Dominic (ATCC 43545), isolated from human with Crohn's disease; type: cell-based, Mycobacterium avium subspecies paratuberculosis; settings: for %−ΔcGI (percent decrease in cumulative GI): MAP Dominic; for % ΔcGI: vs 3.2% DMSO control
# [2] = test system: M. avium ATCC 25291; type: cell-based, M. avium subspecies avium; settings: for %-ΔcGI / effect on growth, in words: M. avium ATCC 25291; for %-ΔcGI: Example 5; for % ΔcGI: M. avium 25291, vs 3.2% DMSO control
# [3] = test system: MAP ATCC 19698 (bovine); type: cell-based, Mycobacterium avium subspecies paratuberculosis; settings: for %-ΔcGI: Example 5; for % ΔcGI: Bovine MAP 19698, vs 3.2% DMSO control
# [4] = test system: M. avium 101; type: cell-based, M. avium subspecies avium; settings: for %-ΔcGI: Example 5; for % ΔcGI: vs 3.2% DMSO control
# [5] = test system: MAP; experiment: Growth inhibition of MAP (strain not stated or MAP strains in general); settings: for %−ΔcGI (percent decrease in cumulative GI): Example 3, strain not stated; for effect on growth of MAP, in words: MAP strains in general
# [6] = test system: MAP 303 (ruminant with Johne's disease); experiment: Radiometric BACTEC growth inhibition, MAP 303; type: cell-based, Mycobacterium avium subspecies paratuberculosis; settings: Bovine MAP 303, vs 3.2% DMSO control
# [7] = test system: MAP UCF 4, isolated from human with Crohn's disease; experiment: Radiometric BACTEC growth inhibition, MAP UCF4; type: cell-based, Mycobacterium avium subspecies paratuberculosis; settings: for % ΔcGI: Human MAP UCF4, vs 3.2% DMSO control
# [8] = 1 μg/ml, MAP Dominic Expt A, Example 5
# [9] = 1 μg/ml, MAP Dominic Expt B, Example 5
# [10] = 4 μg/ml, MAP Dominic Expt A, Example 5
# [11] = 4 μg/ml, MAP Dominic Expt B, Example 5
# [12] = 16 μg/ml, MAP Dominic Expt A, Example 5
# [13] = 16 μg/ml, MAP Dominic Expt B, Example 5
# [14] = 64 μg/ml, MAP Dominic Expt A, Example 5
# [15] = 64 μg/ml, MAP Dominic Expt B, Example 5
# [16] = 1 μg/ml, Human MAP Dominic Expt. 1
# [17] = 1 μg/ml, Human MAP Dominic Expt. 2
# [18] = 4 μg/ml, Human MAP Dominic Expt. 1
# [19] = 4 μg/ml, Human MAP Dominic Expt. 2
# [20] = 16 μg/ml, Human MAP Dominic Expt. 1
# [21] = 16 μg/ml, Human MAP Dominic Expt. 2
# [22] = 64 μg/ml, Human MAP Dominic Expt. 1
# [23] = 64 μg/ml, Human MAP Dominic Expt. 2
smiles,measurement,setting,value
"O=C1CCC(N2C(=O)c3ccccc3C2=O)C(=O)N1 (racemic) [Thalidomide (±), thalidomide]",%-ΔcGI,[1]; [8],−2%
same,%-ΔcGI,[1]; [9],0%
same,%-ΔcGI,[1]; [10],−4%
same,%-ΔcGI,[1]; [11],−2%
same,%-ΔcGI,[1]; [12],−9%
same,%-ΔcGI,[1]; [13],−5%
same,%−ΔcGI (percent decrease in cumulative GI),[1]; 64 μg/ml,31%
same,%-ΔcGI,[1]; [14],−31%
same,%-ΔcGI,[1]; [15],−13%
same,%-ΔcGI,[2]; 1 μg/ml,34%
same,%-ΔcGI,[2]; 4 μg/ml,37%
same,%-ΔcGI,[2]; 16 μg/ml,28%
same,%-ΔcGI,[2]; 64 μg/ml,25%
same,"effect on growth, in words",[2],no dose-dependent inhibition
same,%-ΔcGI,"[3]; 1 μg/ml, MAP ATCC 19698",4%
same,%-ΔcGI,"[3]; 4 μg/ml, MAP ATCC 19698",8%
same,%-ΔcGI,"[3]; 16 μg/ml, MAP ATCC 19698",−7%
same,%−ΔcGI (percent decrease in cumulative GI),"[3]; 64 μg/ml, MAP ATCC 19698",26%
same,%-ΔcGI,"[3]; 64 μg/ml, MAP ATCC 19698",−26%
same,"effect on growth, in words",[4],no dose-dependent inhibition
same,%-ΔcGI,[4]; 1 μg/ml,−20%
same,%-ΔcGI,[4]; 4 μg/ml,−5%
same,%-ΔcGI,[4]; 16 μg/ml,6%
same,%-ΔcGI,[4]; 64 μg/ml,−14%
"Nc1ccc(O)c(C(=O)O)c1 [5-ASA, 5-aminosalicylic acid]","effect on proliferation / cumulative growth index, in words",[3]; MAP ATCC 19698,inhibited the proliferation of MAP (ATCC 19698) in a dose-dependent manner
same,"effect on growth, in words",[4],little effect
"Sc1ncnc2nc[nH]c12 [6-MP, 6-mercaptopurine]",%−ΔcGI (percent decrease in cumulative GI),"[1]; 4 μg/ml, Example 3",41%
same,"effect on growth, in words",[2],less susceptibility to 6-MP than to methotrexate
same,%−ΔcGI (percent decrease in cumulative GI),"[3]; 4 μg/ml, MAP 19698, Example 3",~80% and 84%
same,%−ΔcGI (percent decrease in cumulative GI),[5]; 1 μg/ml,≥ 43%
same,%−ΔcGI (percent decrease in cumulative GI),[5]; 4 μg/ml,≥ 84%
same,"effect on growth of MAP, in words",[5],inhibit the growth kinetics of MAP
same,"effect on growth, in words",[4],less susceptibility to 6-MP than to methotrexate
"CC(C)/N=c1\cc2n(-c3ccc(Cl)cc3)c3ccccc3nc-2cc1Nc1ccc(Cl)cc1 [Clofazimine, clofazimine]",% ΔcGI,[6]; 1 μg/ml,−99%
same,% ΔcGI,[6]; 4 μg/ml,−99%
same,% ΔcGI,[6]; 16 μg/ml,−99%
same,% ΔcGI,[6]; 64 μg/ml,−99%
same,% ΔcGI,[1]; [16],−99%
same,% ΔcGI,[1]; [17],−99%
same,% ΔcGI,[1]; [18],−99%
same,% ΔcGI,[1]; [19],−99%
same,% ΔcGI,[1]; [20],−99%
same,% ΔcGI,[1]; [21],−99%
same,% ΔcGI,[1]; [22],−99%
same,% ΔcGI,[1]; [23],−99%
same,%−ΔcGI (percent decrease in cumulative GI),[1]; at 0.5 (concentration unit not given),97%
same,% ΔcGI,[2]; 1 μg/ml,−98%
same,% ΔcGI,[2]; 4 μg/ml,−98%
same,% ΔcGI,[2]; 16 μg/ml,−98%
same,% ΔcGI,[2]; 64 μg/ml,−99%
same,% ΔcGI,[3]; 1 μg/ml,−99%
same,% ΔcGI,[3]; 4 μg/ml,−99%
same,% ΔcGI,[3]; 16 μg/ml,−99%
same,% ΔcGI,[3]; 64 μg/ml,−99%
same,% ΔcGI,[4]; 1 μg/ml,−98%
same,% ΔcGI,[4]; 4 μg/ml,−98%
same,% ΔcGI,[4]; 16 μg/ml,−98%
same,% ΔcGI,[4]; 64 μg/ml,−99%
same,% ΔcGI,[7]; 1 μg/ml,−99%
same,% ΔcGI,[7]; 4 μg/ml,−99%
same,% ΔcGI,[7]; 16 μg/ml,−99%
same,% ΔcGI,[7]; 64 μg/ml,−99%
O=C1CCCC(=O)N1O [HPD],%-ΔcGI,[1]; [8],−5%
same,%-ΔcGI,[1]; [9],16%
same,%-ΔcGI,[1]; [10],−7%
same,%-ΔcGI,[1]; [11],6%
same,%-ΔcGI,[1]; [12],−18%
same,%-ΔcGI,[1]; [13],12%
same,%−ΔcGI (percent decrease in cumulative GI),[1]; 64 μg/ml,46%
same,%-ΔcGI,[1]; [14],−46%
same,%-ΔcGI,[1]; [15],−19%
same,%-ΔcGI,[2]; 1 μg/ml,−4%
same,%-ΔcGI,[2]; 4 μg/ml,47%
same,%-ΔcGI,[2]; 16 μg/ml,22%
same,%-ΔcGI,[2]; 64 μg/ml,21%
same,"effect on growth, in words",[2],no dose-dependent inhibition
same,%-ΔcGI,"[3]; 1 μg/ml, MAP ATCC 19698",22%
same,%-ΔcGI,"[3]; 4 μg/ml, MAP ATCC 19698",7%
same,%-ΔcGI,"[3]; 16 μg/ml, MAP ATCC 19698",−3%
same,%−ΔcGI (percent decrease in cumulative GI),"[3]; 64 μg/ml, MAP ATCC 19698",−44%
same,%-ΔcGI,"[3]; 64 μg/ml, MAP ATCC 19698",−44%
same,"effect on growth of MAP, in words",[5],the most potent inhibitory agent evaluated; also recorded: inhibits the growth of MAP
same,"effect on growth, in words",[4],no dose-dependent inhibition
same,%-ΔcGI,[4]; 1 μg/ml,−12%
same,%-ΔcGI,[4]; 4 μg/ml,−52%
same,%-ΔcGI,[4]; 16 μg/ml,−21%
same,%-ΔcGI,[4]; 64 μg/ml,−36%
"CO[C@H]1C[C@@H]2CC[C@@H](C)[C@@](O)(O2)C(=O)C(=O)N2CCCC[C@H]2C(=O)O[C@H]([C@H](C)C[C@@H]2CC[C@@H](O)[C@H](OC)C2)CC(=O)[C@H](C)/C=C(\C)[C@@H](O)[C@@H](OC)C(=O)[C@H](C)C[C@H](C)/C=C/C=C/C=C/1C [Rapamycin, sirolimus (rapamycin)]",% ΔcGI,[6]; 1 μg/ml,4%
same,% ΔcGI,[6]; 4 μg/ml,−11%
same,% ΔcGI,[6]; 16 μg/ml,−15%
same,% ΔcGI,[6]; 64 μg/ml,−39%
same,% ΔcGI,[1]; [16],21%
same,% ΔcGI,[1]; [17],0%
same,% ΔcGI,[1]; [18],13%
same,% ΔcGI,[1]; [19],−7%
same,% ΔcGI,[1]; [20],−10%
same,% ΔcGI,[1]; [21],−9%
same,% ΔcGI,[1]; [22],−58%
same,% ΔcGI,[1]; [23],−44%
same,% ΔcGI,[2]; 1 μg/ml,10%
same,% ΔcGI,[2]; 4 μg/ml,7%
same,% ΔcGI,[2]; 16 μg/ml,11%
same,% ΔcGI,[2]; 64 μg/ml,−18%
same,"effect on growth, in words",[2],no inhibition; also recorded: no effect
same,% ΔcGI,[3]; 1 μg/ml,−3%
same,% ΔcGI,[3]; 4 μg/ml,−1%
same,% ΔcGI,[3]; 16 μg/ml,−18%
same,% ΔcGI,[3]; 64 μg/ml,−43%
same,% ΔcGI,[4]; 1 μg/ml,−19%
same,% ΔcGI,[4]; 4 μg/ml,−7%
same,% ΔcGI,[4]; 16 μg/ml,−28%
same,% ΔcGI,[4]; 64 μg/ml,−39%
same,% ΔcGI,[7]; 1 μg/ml,−14%
same,% ΔcGI,[7]; 4 μg/ml,−9%
same,% ΔcGI,[7]; 16 μg/ml,−29%
same,% ΔcGI,[7]; 64 μg/ml,−76%
same,%−ΔcGI (percent decrease in cumulative GI),"[7]; 64 μg/ml, MAP UCF 4",76%
same,"inhibition, in words","[7]; lower concentrations (1 and 16 μg/ml), MAP UCF 4",no inhibition
"O=C1CCC(N2C(=O)c3ccccc3C2=O)C(=O)N1 (stereo not drawn) [Thalidomide (+), thalidomide]",%-ΔcGI,"[1]; 1 μg/ml, MAP (Dominic), Table 4",−4%
same,%-ΔcGI,"[1]; 4 μg/ml, MAP (Dominic), Table 4",1%
same,%-ΔcGI,"[1]; 16 μg/ml, MAP (Dominic), Table 4",−14%
same,%-ΔcGI,"[1]; 64 μg/ml, MAP (Dominic), Table 4",−58%
same,"effect on growth of MAP, in words",[5],more inhibitory than thalidomide (−)
same,%-ΔcGI,[4]; 1 μg/ml,4%
same,%-ΔcGI,[4]; 4 μg/ml,−5%
same,%-ΔcGI,[4]; 16 μg/ml,16%
same,%-ΔcGI,[4]; 64 μg/ml,−19%
CC1(C)S[C@@H]2[C@H](NC(=O)[C@H](N)c3ccccc3)C(=O)N2[C@H]1C(=O)O [ampicillin],%−ΔcGI (percent decrease in cumulative GI),[5]; 32 μg/ml,21%
CC[C@H]1OC(=O)[C@H](C)[C@@H](O[C@H]2C[C@@](C)(OC)[C@@H](O)[C@H](C)O2)[C@H](C)[C@@H](O[C@@H]2O[C@H](C)C[C@H](N(C)C)[C@H]2O)[C@](C)(OC)C[C@@H](C)C(=O)[C@H](C)[C@@H](O)[C@]1(C)O [clarithromycin],"effect on growth, in words",[2],no evidence of growth
same,%−ΔcGI (percent decrease in cumulative GI),"[3]; 4 μg/ml, MAP 19698, Example 3",~80%
same,%−ΔcGI (percent decrease in cumulative GI),[5]; 0.5 μg/ml,≥ 86%
CN(Cc1cnc2nc(N)nc(N)c2n1)c1ccc(C(=O)N[C@@H](CCC(=O)O)C(=O)O)cc1 [methotrexate],%−ΔcGI (percent decrease in cumulative GI),[5]; 2 μg/ml,40%
same,%−ΔcGI (percent decrease in cumulative GI),[5]; 4 μg/ml,≥ 75%
same,"effect on growth of MAP, in words",[5],inhibit the growth kinetics of MAP
Nc1ccc(C(=O)O)c(O)c1 [p-aminosalicylic acid],"effect on proliferation / cumulative growth index, in words",[3]; MAP ATCC 19698,inhibited the proliferation of MAP (ATCC 19698) in a dose-dependent manner
Nc1ccc(S(=O)(=O)Nc2ccccn2)cc1 [sulfapyridine],"effect on proliferation / cumulative growth index, in words",[3]; MAP ATCC 19698,little effect on the cumulative growth index of MAP
same,"effect on growth, in words",[4],inhibited M. avium 101 in a dose-dependent manner
O=C(O)c1cc(/N=N/c2ccc(S(=O)(=O)Nc3ccccn3)cc2)ccc1O [sulfasalazine],"effect on proliferation / cumulative growth index, in words",[3]; MAP ATCC 19698,little effect on the cumulative growth index of MAP

# — patent US20130101615A1, “METHODS FOR PREVENTING OR TREATING A DISEASE OR CONDITION ASSOCIATED WITH MYCOBACTERIUM AVIUM SUBSPECIES PARATUBERCULOSIS” (priority 2005, published 2013)
